Measurements published in PubChem BioAssay (NCI).
Where “and” joins values, the source holds several entries; their conditions need not be identical. Equal values may be shown once.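 In this assay, cells in 96-well plates receive the compound at five concentrations for 48 hours. Endpoints are linearly interpolated between the surrounding concentrations. GI50 marks 50% less growth. TGI: concentration producing complete growth inhibition.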

Assays:
Test in all cases: NCI-60 cell line screen, 48 h
A498 renal = tested on: A498 renal
A549 NSCLC = tested on: A549 NSCLC
CCRF-CEM leukemia = tested on: CCRF-CEM leukemia
DMS 114 small cell lung = tested on: DMS 114 small cell lung
OVCAR-3 ovarian = tested on: OVCAR-3 ovarian
SK-MEL-2 melanoma = tested on: SK-MEL-2 melanoma
SNB-78 CNS = tested on: SNB-78 CNS
HL-60(TB) leukemia = tested on: HL-60(TB) leukemia
HS 578T breast = tested on: HS 578T breast
RXF 393 renal = tested on: RXF 393 renal

## O=C1/C(=C/c2ccccc2)CNC/C1=C\c1ccccc1
A498 renal
  TGI: 4.57 µM
A549 NSCLC
  TGI: 7.63 µM
CCRF-CEM leukemia
  TGI: > 25.5 µM
DMS 114 small cell lung
  TGI: 8.36 µM
OVCAR-3 ovarian
  TGI: 3.09 µM
SK-MEL-2 melanoma
  TGI: 9.18 µM
SNB-78 CNS
  TGI: 41.8 µM

## CC[C@@H]1CN(C)[C@H]2Cc3c([nH]c4ccccc34)C(=O)C[C@H]1C2C(=O)OC (some centres not stated)
A498 renal
  TGI: > 100 µM
A549 NSCLC
  TGI: > 100 µM
CCRF-CEM leukemia
  TGI: > 100 µM
HL-60(TB) leukemia
  TGI: > 100 µM
HS 578T breast
  TGI: > 100 µM
OVCAR-3 ovarian
  TGI: > 100 µM
RXF 393 renal
  TGI: > 100 µM
SK-MEL-2 melanoma
  TGI: > 100 µM

## C=C1C(=O)O[C@H]2[C@H]1CC/C(COC(=O)c1ccc3ccccc3c1)=C\CC[C@@]1(C)O[C@@H]21
A498 renal
  GI50: 1.88 µM
  TGI: 4.5 µM
A549 NSCLC
  GI50: 1.59 µM
  TGI: 3.43 µM
CCRF-CEM leukemia
  GI50: 0.28 µM
  TGI: 1.38 µM
HL-60(TB) leukemia
  GI50: 0.849 µM
  TGI: 3.83 µM
HS 578T breast
  GI50: 1.53 µM
  TGI: 4.51 µM
OVCAR-3 ovarian
  GI50: 0.538 µM
  TGI: 1.77 µM
RXF 393 renal
  GI50: 0.286 µM
  TGI: 1.48 µM
SK-MEL-2 melanoma
  GI50: 1.2 µM
  TGI: 2.61 µM

## COc1ccc(-c2cc(=O)c3c(OC)c(OC)c(OC)cc3o2)cc1
A498 renal
  TGI: 84 µM
A549 NSCLC
  TGI: 85.9 µM
CCRF-CEM leukemia
  TGI: 74 µM
HL-60(TB) leukemia
  TGI: > 100 µM
HS 578T breast
  TGI: > 100 µM
OVCAR-3 ovarian
  TGI: 94.9 µM
RXF 393 renal
  TGI: > 100 µM
SK-MEL-2 melanoma
  TGI: 56 µM

## Cc1cc2c(cc1C)[n+](=O)c(C(=O)C/C(=N/NC(=O)CC#N)C(=O)Nc1ccccc1C(F)(F)F)c(C)n2[O-]
A498 renal
  TGI: > 100 µM
A549 NSCLC
  TGI: > 100 µM
CCRF-CEM leukemia
  TGI: > 100 µM
DMS 114 small cell lung
  TGI: > 100 µM
HL-60(TB) leukemia
  TGI: 86 µM
OVCAR-3 ovarian
  TGI: > 100 µM
RXF 393 renal
  TGI: > 100 µM
SK-MEL-2 melanoma
  TGI: 92.3 µM

## COC12C=C(C)C(CC1)CC2C(=O)O (configuration not stated)
A498 renal
  TGI: > 100 µM
A549 NSCLC
  TGI: > 100 µM
CCRF-CEM leukemia
  TGI: > 100 µM
HL-60(TB) leukemia
  TGI: > 100 µM
OVCAR-3 ovarian
  TGI: > 100 µM
RXF 393 renal
  TGI: > 100 µM
SK-MEL-2 melanoma
  TGI: > 100 µM
SNB-78 CNS
  TGI: > 100 µM

## COc1ccc(C2=CC3CCC2C3)cc1 (configuration not stated)
A498 renal
  TGI: > 100 µM
A549 NSCLC
  TGI: > 100 µM
CCRF-CEM leukemia
  TGI: > 100 µM
HL-60(TB) leukemia
  TGI: > 100 µM
OVCAR-3 ovarian
  TGI: > 100 µM
RXF 393 renal
  TGI: > 100 µM
SK-MEL-2 melanoma
  TGI: > 100 µM
SNB-78 CNS
  TGI: > 100 µM

## CC[C@@H]1C(=O)N(C)c2cnc(Nc3ccc(C(=O)NC4CCN(C)CC4)cc3OC)nc2N1C1CCCC1
A498 renal
  GI50: 0.0245 µM and 0.0246 µM
  TGI: 0.146 µM and 0.368 µM
A549 NSCLC
  GI50: 0.00602 µM and < 0.0113 µM
  TGI: > 10 µM and 3.5 µM
CCRF-CEM leukemia
  GI50: 0.00236 µM and < 0.01 µM
  TGI: 2.9 µM and 1.26 µM
HL-60(TB) leukemia
  GI50: 0.00231 µM and < 0.01 µM
  TGI: 0.00631 µM and 0.0445 µM
HS 578T breast
  GI50: 0.00842 µM and 0.0188 µM
  TGI: 0.394 µM and 0.475 µM
OVCAR-3 ovarian
  GI50: 0.00353 µM and < 0.01 µM
RXF 393 renal
  GI50: 0.0047 µM and < 0.01 µM
  TGI: 0.627 µM and 0.576 µM
SK-MEL-2 melanoma
  TGI: > 10 µM and 6.29 µM

## N#CSc1c[nH]c2cccc(/C=C/C(=O)/C=C(/C=C/c3cccc4[nH]cc(SC#N)c34)OB(F)F)c12
A498 renal
  GI50: 2.01 µM
  TGI: 6.97 µM
A549 NSCLC
  GI50: 0.991 µM
  TGI: 10.2 µM
CCRF-CEM leukemia
  GI50: 0.315 µM
  TGI: 17.6 µM
HL-60(TB) leukemia
  GI50: 0.293 µM
  TGI: 5.25 µM
HS 578T breast
  GI50: 2.17 µM
  TGI: > 58.6 µM
OVCAR-3 ovarian
  GI50: 0.243 µM
  TGI: 0.586 µM
RXF 393 renal
  GI50: 0.226 µM
  TGI: 0.516 µM
SK-MEL-2 melanoma
  GI50: 2.4 µM
  TGI: 5.9 µM

## O=C1Nc2c(C(F)(F)F)cccc2[C@]1(c1ccc(O)cc1)c1ccc(OC(F)(F)F)cc1
A498 renal
  GI50: 14.7 µM
  TGI: 30 µM
A549 NSCLC
  GI50: 5.26 µM
  TGI: 20 µM
CCRF-CEM leukemia
  GI50: 11.7 µM
  TGI: 49.9 µM
HL-60(TB) leukemia
  GI50: 13.7 µM
  TGI: 32.5 µM
HS 578T breast
  GI50: 1.44 µM
  TGI: 5.89 µM
OVCAR-3 ovarian
  GI50: 3.95 µM
  TGI: 16.3 µM
RXF 393 renal
  GI50: 3.29 µM
  TGI: 15.5 µM
SK-MEL-2 melanoma
  GI50: 12.6 µM
  TGI: 28.2 µM

## COc1ccc(/C=C/c2nccc3ccccc23)cc1OC
A498 renal
  TGI: > 10 µM
A549 NSCLC
  TGI: > 10 µM
CCRF-CEM leukemia
  TGI: > 10 µM
HL-60(TB) leukemia
  TGI: > 10 µM
HS 578T breast
  TGI: > 10 µM
OVCAR-3 ovarian
  TGI: > 10 µM
RXF 393 renal
  TGI: > 10 µM
SK-MEL-2 melanoma
  TGI: > 10 µM

## CCN(CC)c1ccc(/C=C/c2ccc3cc(C)ccc3[n+]2CC)cc1
A498 renal
  GI50: 0.149 µM
  TGI: 1.78 µM
A549 NSCLC
  GI50: 0.119 µM
  TGI: 14.6 µM
CCRF-CEM leukemia
  GI50: 0.299 µM
  TGI: 29.9 µM
HL-60(TB) leukemia
  GI50: 0.0297 µM
  TGI: 0.429 µM
HS 578T breast
  GI50: 1.01 µM
  TGI: 69 µM
OVCAR-3 ovarian
  GI50: 0.075 µM
  TGI: 0.995 µM
RXF 393 renal
  GI50: 0.216 µM
  TGI: 3.41 µM
SK-MEL-2 melanoma
  GI50: 0.173 µM
  TGI: 0.71 µM

## C=CC(=O)N1CC2(CCN(c3nc(OC4CCN(CCCOC)CC4)nc4c(OCC(F)(F)F)c(-c5c(C)ccc6[nH]ncc56)c(C5CC5)cc34)CC2)C1
A498 renal
  GI50: 15.4 µM
  TGI: 29.5 µM
A549 NSCLC
  GI50: 3.45 µM
  TGI: 17.6 µM
CCRF-CEM leukemia
  GI50: 2.46 µM
  TGI: 8.09 µM
HL-60(TB) leukemia
  GI50: 1.76 µM
  TGI: 4.57 µM
HS 578T breast
  GI50: 2.91 µM
  TGI: 13.3 µM
OVCAR-3 ovarian
  GI50: 2.37 µM
  TGI: 5.28 µM
RXF 393 renal
  GI50: 1.8 µM
  TGI: 3.73 µM
SK-MEL-2 melanoma
  GI50: 2.19 µM
  TGI: 4.77 µM

## COC1/C=C\C=C(/C)C(=O)NC2=CC(=O)C(=O)C(=C2O)CC(C)CC(OC)C(O)C(C)/C=C(\C)C1OC(N)=O (configuration not stated)
A498 renal
  TGI: > 100 µM
A549 NSCLC
  TGI: > 100 µM
CCRF-CEM leukemia
  TGI: 25.8 µM
HL-60(TB) leukemia
  TGI: > 35.5 µM
HS 578T breast
  TGI: > 100 µM
OVCAR-3 ovarian
  TGI: 19.7 µM
RXF 393 renal
  TGI: 27.5 µM
SK-MEL-2 melanoma
  TGI: > 60.5 µM

## COc1cc(C2=C(c3ccccc3)COC2=O)cc(OC)c1OC
A498 renal
  GI50: 6.87 µM
  TGI: > 66.1 µM
A549 NSCLC
  GI50: 6.78 µM
  TGI: > 58.7 µM
CCRF-CEM leukemia
  GI50: 1.38 µM
  TGI: > 100 µM
HL-60(TB) leukemia
  GI50: 0.409 µM
  TGI: 2.14 µM
HS 578T breast
  GI50: 5.61 µM
  TGI: > 90 µM
OVCAR-3 ovarian
  GI50: 0.309 µM
  TGI: 2.1 µM
RXF 393 renal
  GI50: 1.56 µM
  TGI: > 100 µM
SK-MEL-2 melanoma
  GI50: 7.81 µM
  TGI: > 100 µM

## Cn1c2ccccc2c2c(-c3ccccc3)[n+]3ccncc3nc21
A498 renal
  GI50: > 100 µM
  TGI: > 100 µM
A549 NSCLC
  GI50: > 100 µM
  TGI: > 100 µM
CCRF-CEM leukemia
  GI50: 89.4 µM
  TGI: > 100 µM
HL-60(TB) leukemia
  GI50: > 100 µM
  TGI: > 100 µM
HS 578T breast
  GI50: 87.5 µM
  TGI: > 100 µM
OVCAR-3 ovarian
  GI50: > 100 µM
  TGI: > 100 µM
RXF 393 renal
  GI50: > 100 µM
  TGI: > 100 µM
SK-MEL-2 melanoma
  GI50: 55 µM
  TGI: > 100 µM

## CN1CCN(C(=O)OCc2nc3c(N4CCOCC4)nc(Cl)nc3n2C)CC1
A498 renal
  GI50: 1.15 µM
  TGI: 2.46 µM
A549 NSCLC
  GI50: 1.81 µM
  TGI: 5.25 µM
CCRF-CEM leukemia
  GI50: 0.313 µM
  TGI: 1.78 µM
HL-60(TB) leukemia
  GI50: 0.65 µM
  TGI: 3.28 µM
HS 578T breast
  GI50: 1.64 µM
  TGI: 5.38 µM
OVCAR-3 ovarian
  GI50: 0.547 µM
  TGI: 2.15 µM
RXF 393 renal
  GI50: 1.08 µM
  TGI: 2.31 µM
SK-MEL-2 melanoma
  GI50: 1.62 µM
  TGI: 3.45 µM

## C/C(CC(=O)Nc1cc(Cl)c(Cl)cc1Cl)=N\NC(N)=O
A549 NSCLC
  TGI: > 100 µM
CCRF-CEM leukemia
  TGI: > 100 µM
DMS 114 small cell lung
  TGI: > 100 µM
HL-60(TB) leukemia
  TGI: > 100 µM
OVCAR-3 ovarian
  TGI: > 100 µM
RXF 393 renal
  TGI: > 100 µM
SK-MEL-2 melanoma
  TGI: > 100 µM
